Drawing on patent publication EP0414533A1, “Use of iodopropargyl esters of alpha-amino acid derivatives as antimicrobial agents” (ROHM AND HAAS COMPANY, priority 1989, dated 1991), this text covers inhibition of growth and MIC for one molecule.

Each structure is given as a SMILES string. Values after ≈ are worked out from the molar mass of the structure shown. Like-named read-outs stand apart in the source and are kept apart here.

The MIC is the lowest concentration that inhibits growth of the organism.

One assay has as its system Pythium ultimum (PYU). Put plainly: In-vitro plant fungicide test. It counts as cell-based. The conditions noted are these: Globisporangium ultimum; 25 ppm; Table IVa; read-out: % Control at 25 ppm PYU.
In the next assay the test system is THREE FUNGI. Put plainly: MIC test against three fungi in Mycophile Broth, pH 5.0, read after 8 days (Table VII). It is filed as cell-based. The conditions noted are these: 192 h, serial dilutions from 50 ppm, read after 8 days of incubation.
For another assay, the system named is Escherichia coli (ECOL). Put plainly: Minimum inhibitory concentration (MIC), broth two-fold serial dilution test. Particulars: Escherichia coli, IIIB, read-out: MIC (G-) ECOL, trypticase soy broth (complex media); Table IIIb.
For assay [1], the system named is Xanthomonas campestris (XAN). Put plainly: In-vitro plant fungicide test. The conditions noted are these: Xanthomonas campestris; 25 ppm; Table IVa; read-out: % Control at 25 ppm XAN. It counts as cell-based.
The next assay has as its system Aspergillus niger (ANIG). Put plainly: Minimum inhibitory concentration (MIC), broth two-fold serial dilution test. It counts as cell-based. Particulars: Aspergillus niger, IIIB, trypticase soy broth (complex media); Table IIIb; read-out: MIC (F) ANIG.
The test system of the next assay is Botrytis cinerea (BOC). Put plainly: In-vitro plant fungicide test. It is filed as cell-based. Particulars: Botrytis cinerea, 25 ppm; Table IVa; *=Phytotoxic; read-out: % Control at 25 ppm BOC.
Assay [2] concerns Cochliobolus sativus (HEL). Briefly: In-vitro plant fungicide test. It is filed as cell-based. The conditions noted are these: Bipolaris sorokiniana, 25 ppm; Table IVa; *=Phytotoxic; read-out: % Control at 25 ppm HEL.
The test system of another assay is Rhizoctonia solani (RHI). Put plainly: In-vitro plant fungicide test. It counts as cell-based. Particulars: Rhizoctonia solani; 25 ppm; Table IVa; read-out: % Control at 25 ppm RHI.
The test system of assay [3] is Staphylococcus aureus (SAUR). Briefly: Minimum inhibitory concentration (MIC), broth two-fold serial dilution test. The conditions noted are these: Staphylococcus aureus, IIIB, read-out: MIC (G+) SAUR, trypticase soy broth (complex media); Table IIIb.
Excerpt: (§1) When the test is ready to be done, each vessel in the dilution series, except the first vessel, contains an equal volume of compound free broth. The first vessel contains twice the volume of broth with the starting concentration of test compound. One half of the broth from the first vessel is transferred to the second vessel. After being mixed, one half the resulting volume is removed from the second vessel and transferred to the third vessel. The entire cycle is repeated sufficiently to give a series of concentrations amounting to 500, 250, 125, 63, 31, 16, 8, and 4 ppm (or 100, 50, 25, 12.5, 6.2, 3.1, 1.6, and 0.8), respectively.
(§2) Each vessel is then inoculated with a cell suspension of the appropriate test organism. Bacteria are grown in broth, fungi on agar slants for a time and at a temperature appropriate to the species being tested, and algae are a mixture of green algae and blue-green bacteria grown in a nutrient media. At the end of the growth period, in the case of bacteria, the broth is vortexed to disperse the cells.
(§3) The vessels are then incubated at the appropriate temperature. After the incubation, the vessels are examined for growth/no growth.
The next assay has as its system Fusarium roseum (FUS). Briefly: In-vitro plant fungicide test. It counts as cell-based. The conditions noted are these: Fusarium sambucinum, read-out: % Control at 25 ppm FUS, 25 ppm; Table IVa; *=Phytotoxic.
The test system of assay [4] is Pseudomonas aerugenosa (PSAE). Put plainly: Minimum inhibitory concentration (MIC), broth two-fold serial dilution test. The conditions noted are these: Pseudomonas, IIIB, read-out: MIC (G-) PSAE, trypticase soy broth (complex media); Table IIIb.
Excerpt: as §1, §2, §3
Assay [5] relates to Phytophthora capsici (PHY). Put plainly: In-vitro plant fungicide test. The conditions noted are these: Phytophthora capsici; 25 ppm; Table IVa; read-out: % Control at 25 ppm PHY. It counts as cell-based.

As to `O=C(CNC(=O)c1ccccc1)OCC#CI` [Compound 29, N-benzoylglycine iodopropargyl ester], the inhibition of growth at 25 ppm in the assay on Pythium ultimum (PYU) was determined as 100%; in [1] it was 0%; with Botrytis cinerea (BOC), 100%; in [2], 100%; in the assay on Rhizoctonia solani (RHI), 100%; in the assay on Fusarium roseum (FUS), 100%. Moreover, in assay [5], the inhibition of growth at 25 ppm was found to be 100%. Also, the MIC in the assay with THREE FUNGI (Aspergillus niger, read-out: MIC ANIG) turned out to be 1.6 µg/mL (≈ 4.66 µM); with THREE FUNGI (Aureobasidium pullulans, read-out: MIC APUL), 12.5 µg/mL (≈ 36.4 µM); with THREE FUNGI (Gloeophyllum trabeum, read-out: MIC GTRA) it was 3.2 µg/mL (≈ 9.33 µM); in the assay on Escherichia coli (ECOL), 125 µg/mL (≈ 364 µM); in the assay with Aspergillus niger (ANIG), 0.5 µg/mL (≈ 1.46 µM); in assay [3], 32 µg/mL (≈ 93.3 µM). In assay [4], the MIC is 125 µg/mL (≈ 364 µM).
